Measured values as given in patent publication US10786465B2, “Polymer/copolymer nanoparticles conjugated to gambogic acid” (The Texas A&M University System, priority 2015, dated 2020).

Tests used:
[1] = described in literature; cited from earlier work
Caco-2 cells = assay: Concentration dependent toxicity in Caco-2 cells; assay type: cell-based; details: human
Description: Cell death observed in the latter case could be attributed to the cumulative effect of high concentration of polymer and available GA. However, a moderate treatment of 250 μg NS appears to be safe for the cells. The amount of GA present in all the NS in […] was much lower than the established safe dose of 60 mg/kg described in literature.

TfR = TfR (Homo sapiens, UniProt P02786); assay: Sandwich ELISA, binding of fluorescent PLGA-GA/PLGA NS to TfR; details: 200 ng of TfR
Description: GA has been previously shown to have affinity for TfR, independent of transferrin binding. To evaluate the translation of the avidity of GA for TfR in PLGA-GA NS, a sandwich ELISA method was employed. The initial study involved the determination of the effect of surface GA density of NS in their binding affinity to TfR. […] The total […] of the NS suspension available in the wells without TfR was also measured in order to ensure that the variation in the FI with TfR was caused by the binding of the NS to the receptor.

Sequence of TfR (P02786 whole entry, species assumed): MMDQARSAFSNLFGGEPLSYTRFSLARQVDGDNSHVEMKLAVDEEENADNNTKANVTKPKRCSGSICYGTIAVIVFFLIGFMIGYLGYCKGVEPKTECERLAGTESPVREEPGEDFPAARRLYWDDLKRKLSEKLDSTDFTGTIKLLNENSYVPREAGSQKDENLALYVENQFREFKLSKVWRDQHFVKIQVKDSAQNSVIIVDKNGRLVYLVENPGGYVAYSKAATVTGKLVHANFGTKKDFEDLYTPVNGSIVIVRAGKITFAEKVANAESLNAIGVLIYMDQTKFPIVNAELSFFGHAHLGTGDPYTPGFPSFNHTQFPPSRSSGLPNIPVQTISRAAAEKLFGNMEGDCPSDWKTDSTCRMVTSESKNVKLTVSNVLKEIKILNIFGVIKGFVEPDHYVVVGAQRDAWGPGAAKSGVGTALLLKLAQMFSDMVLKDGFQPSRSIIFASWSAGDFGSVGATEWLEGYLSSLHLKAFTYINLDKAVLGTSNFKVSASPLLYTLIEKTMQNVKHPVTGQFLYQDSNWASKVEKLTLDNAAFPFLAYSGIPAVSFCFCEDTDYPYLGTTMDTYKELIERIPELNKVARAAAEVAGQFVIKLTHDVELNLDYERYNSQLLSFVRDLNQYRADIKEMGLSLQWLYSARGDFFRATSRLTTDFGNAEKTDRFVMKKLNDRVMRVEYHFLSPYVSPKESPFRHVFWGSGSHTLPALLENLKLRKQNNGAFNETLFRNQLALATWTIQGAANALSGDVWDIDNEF

Q: For CC(C)=CCC[C@]1(C)C=Cc2c(O)c3c(c(CC=C(C)C)c2O1)O[C@]12C(=C[C@@H]4C[C@H]1C(C)(C)O[C@@]2(C/C=C(/C)C(=O)O)C4=O)C3=O [GA, gambogic acid], which established safe dose [1] is on record?
A: The established safe dose was 60 mg/kg.

Q: What about the cell death (Caco-2 cells; 20 μM) of the same compound?
A: Its cell death is 25%.

Q: What about the cell death (Caco-2 cells; 30 μM) of the same compound?
A: The cell death was 46%.

Q: And the “competition with 2° antibody for TfR (colorimetric TfR levels)” value (TfR)?
A: The value was “does not compete with 2° antibody for TfR”.
